Reference: patent publication US5527815A, “Carboxymethylidenecycloheptimidazole derivatives, method of manufacturing the same and therapeutic agents containing these compounds” (Kotobuki Seiyaku Co., Ltd., priority 1993, dated 1996)

target: T1, Angiotensin II receptor (Oryctolagus cuniculus, UniProt P34976); assay: AII receptor antagonistic activity: inhibition of angiotensin II induced contraction of isolated rabbit thoracic aorta; format: cell-based; details: isolated rabbit thoracic aorta contracted by angiotensin II; Van Rossum method; values shown in parenthesis
T1 construct: Rabbit thoracic aorta is isolated, contracted by angiotensin II; from tissue; host or cells: rabbit thoracic aorta
T1 sequence (P34976 1-359): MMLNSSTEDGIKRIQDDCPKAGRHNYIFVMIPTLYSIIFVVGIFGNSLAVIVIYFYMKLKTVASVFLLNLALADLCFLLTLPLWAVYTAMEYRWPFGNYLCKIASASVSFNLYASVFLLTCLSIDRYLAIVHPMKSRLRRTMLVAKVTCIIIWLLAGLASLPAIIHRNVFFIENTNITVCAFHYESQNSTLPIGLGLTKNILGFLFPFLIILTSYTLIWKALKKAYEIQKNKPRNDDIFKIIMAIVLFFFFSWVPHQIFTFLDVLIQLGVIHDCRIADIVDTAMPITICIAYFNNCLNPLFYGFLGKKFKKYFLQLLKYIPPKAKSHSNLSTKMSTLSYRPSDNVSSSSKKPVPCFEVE
Method: [AII receptor antagonistic activity]
Angiotensin II receptor activity experiments are carried out according to P. C. Wong et al. (Hypertension 15, 823 (1990)).
Rabbit thoracic aorta is isolated, contracted by angiotensin II. The inhibition of contraction by the compound of formula (1) is expressed as pA2 from dose-response curve (Schild, Brit. J. Pharmacol. 14, 48 (1959)) or expressed as pD2 ' according to the method of J. M. Van Rossum (Arch. Intern. Pharmacodyn., 143, 229 (1963)).

Row | Compound | pD2'
1 | CCCc1nc2c(n1Cc1ccc(-c3ccccc3-c3nnn[nH]3)cc1)/C(=C/C(=O)O)CC(C(C)C)CC2 (stereo not shown) [Compound 21, 2-Propyl-6-isopropyl-8-carboxymethylidene-1-[(2'-(1H-tetrazole-5-yl)biphenyl-4-yl)methyl]-4,5,6,7-tetrahydro-cycloheptimidazole] | 9.08
2 | CCc1nc2c(n1Cc1ccc(-n3cccc3-c3nnn[nH]3)cc1)/C(=C/C(=O)O)CCCC2 [Compound 23, 2-Ethyl-8-carboxymethylidene-1-[4-(1H-pyrrole-2-(1H-tetrazole-5-yl)phenyl)methyl]-4,5,6,7-tetrahydro-cycloheptimidazole] | 9.60
3 | CCCCc1nc2c(n1Cc1ccc(-c3ccccc3-c3nnn[nH]3)cc1)/C(=C/C(=O)O)CC(C(C)C)CC2 (stereo not shown) [Compound 25, 2-Butyl-6-isopropyl-8-carboxymethylidene-1-[(2'-(1H-tetrazole-5-yl)biphenyl-4-yl)methyl]-4,5,6,7-tetrahydro-cycloheptimidazole] | 8.88
4 | CCCc1nc2c(n1Cc1ccc(-c3ccccc3-c3nnn[nH]3)cc1)/C(=C/C(=O)OC(C)OC(=O)OCC)CCCC2 (stereo not shown) [Compound 27, 2-Propyl-8-(1-ethoxycarbonyloxy)ethoxycarbonylmethylidene-1-[(2'-(1H-tetrazole-5-yl)biphenyl-4-yl)methyl]-4,5,6,7-tetrahydro-cycloheptimidazole] | 8.45
5 | CCc1nc2c(n1Cc1ccc(-c3ccccc3-c3nnn[nH]3)cc1)/C(=C/C(=O)OC(C)OC(=O)OC(C)C)CCCC2 (stereo not shown) [Compound 30, 2-Ethyl-8-(1-isopropoxycarbonyloxy)ethoxycarbonylmethylidene-1-[(2'-(1H-tetrazole-5-yl)biphenyl-4-yl)methyl]-4,5,6,7-tetrahydro-cycloheptimidazole] | 8.11
6 | CCc1nc2c(n1Cc1ccc(-n3cccc3-c3nnn[nH]3)cc1)/C(=C/C(=O)OC(C)OC(=O)OC(C)C)CCCC2 (stereo not shown) [Compound 32, 2-Ethyl-8-(1-isopropoxycarbonyloxy)ethoxycarbonylmethylidene-[4-(1H-pyrrole-2-(1H-tetrazole-5-yl)phenyl)methyl]-4,5,6,7-tetrahydro-cycloheptimidazole] | 9.38
7 | CCc1nc2c(n1Cc1ccc(-c3ccccc3-c3nnn[nH]3)cc1)/C(=C/C(=O)OC(C)OC(=O)OC1CCCCC1)CCCC2 (stereo not shown) [Compound 35] | 8.12

Further lines, results first:

Row | pD2' | Compound
8 | 9.00 | CCOC(=O)/C=C1\CCCCc2nc(CC)n(Cc3ccc(-c4ccccc4-c4nnn[nH]4)cc3)c21 [Compound 3, 2-Ethyl-8-ethoxycarbonylmethylidene-1-[(2'-(1H-tetrazole-5-yl)biphenyl-4-yl)methyl]-4,5,6,7-tetrahydro-cycloheptimidazole]
9 | 8.40 | CCCc1nc2c(n1Cc1ccc(-c3ccccc3-c3nnn[nH]3)cc1)/C(=C/C(=O)OCC)CCCC2 [Compound 4, 2-Propyl-8-ethoxycarbonylmethylidene-1-[(2'-(1H-tetrazole-5-yl)biphenyl-4-yl)methyl]-4,5,6,7-tetrahydro-cycloheptimidazole]
10 | 9.91 | Cc1nc2c(n1Cc1ccc(-c3ccccc3-c3nnn[nH]3)cc1)/C(=C/C(=O)O)CCCC2 [Compound 15, 2-Methyl-8-carboxymethylidene-1-[(2'-(1H-tetrazole-5-yl)biphenyl-4-yl)methyl]-4,5,6,7-tetrahydro-cycloheptimidazole]
11 | 9.91 | CCc1nc2c(n1Cc1ccc(-c3ccccc3-c3nnn[nH]3)cc1)/C(=C/C(=O)O)CCCC2 [Compound 16, 2-Ethyl-8-carboxymethylidene-1-[(2'-(1H-tetrazole-5-yl)biphenyl-4-yl)methyl]-4,5,6,7-tetrahydro-cycloheptimidazole]
12 | 9.86 | CCCc1nc2c(n1Cc1ccc(-c3ccccc3-c3nnn[nH]3)cc1)/C(=C/C(=O)O)CCCC2 [Compound 17, 2-Propyl-8-carboxymethylidene-1-[(2'-(1H-tetrazole-5-yl)biphenyl-4-yl)methyl]-4,5,6,7-tetrahydro-cycloheptimidazole]
13 | 9.03 | CCCCc1nc2c(n1Cc1ccc(-c3ccccc3-c3nnn[nH]3)cc1)/C(=C/C(=O)O)CCCC2 [Compound 18, 2-Butyl-8-carboxymethylidene-1-[(2'-(1H-tetrazole-5-yl)biphenyl-4-yl)methyl]-4,5,6,7-tetrahydro-cycloheptimidazole]
14 | 9.04 | CCc1nc2c(n1Cc1ccc(-c3ccccc3-c3nnn[nH]3)cc1)/C(=C/C(=O)O)CC(C(C)C)CC2 (stereo not shown) [Compound 20, 2-Ethyl-6-isopropyl-8-carboxymethylidene-1-[(2'-(1H-tetrazole-5-yl)biphenyl-4-yl)methyl]-4,5,6,7-tetrahydro-cycloheptimidazole]
15 | 8.59 | CCOC(=O)OC(C)OC(=O)/C=C1\CCCCc2nc(CC)n(Cc3ccc(-c4ccccc4-c4nnn[nH]4)cc3)c21 (stereo not shown) [Compound 36, 2-Ethyl-8-(1-ethoxycarbonyloxy)ethoxycarbonylmethylidene-1-[(2'-(1H -tetrazole-5-yl)biphenyl-4yl)methyl]-4,5,6,7-tetrahydro-cycloheptimidazole]

same assay, conditions: isolated rabbit thoracic aorta contracted by angiotensin II; from dose-response curve (Schild); read-out: pA2 (converted)

Row | Kb [nM] | Compound
16 | 36.3 | CCOC(=O)/C=C1\CCCCc2nc(C)n(Cc3ccc(-c4ccccc4-c4nnn[nH]4)cc3)c21 [Compound 2, 2-Methyl-8-ethoxycarbonylmethylidene-1-[(2'-(1H-tetrazole-5-yl)biphenyl-4-yl)methyl]-4,5,6,7-tetrahydro-cycloheptimidazole]
17 | 0.158 | CCCc1nc2c(n1Cc1ccc(-c3ccccc3-c3nn[nH]n3)cc1)CCCC/C2=C\C(=O)O [Compound 14, 2-Propyl-4-carboxymethylidene-1-[(2'-(1H-tetrazole-5-yl)biphenyl-4-yl)methyl]-5,6,7,8-tetrahydro-cycloheptimidazole]
18 | 1.51 | CCCCCc1nc2c(n1Cc1ccc(-c3ccccc3-c3nn[nH]n3)cc1)/C(=C/C(=O)O)CCCC2 [Compound 19, 2-Pentyl-8-carboxymethylidene-1-[(2'-(1H-tetrazole-5-yl)biphenyl-4-yl)methyl]-4,5,6,7-tetrahydro-cycloheptimidazole]
19 | 1.26 | Cc1nc2c(n1Cc1ccc(-n3cccc3-c3nn[nH]n3)cc1)/C(=C/C(=O)O)CCCC2 [Compound 22, 2-Methyl-8-carboxymethylidene-1-[4-(1H-pyrrole-2-(1H-tetrazole-5-yl)phenyl)methyl]-4,5,6,7-tetrahydro-cycloheptimidazole]
20 | 0.158 | CCCc1nc2c(n1Cc1ccc(-n3cccc3-c3nn[nH]n3)cc1)/C(=C/C(=O)O)CCCC2 [Compound 24, 2-Propyl-8-carboxymethylidene-1-[4-(1H-pyrrole-2-(1H-tetrazole-5-yl)phenyl)methyl]-4,5,6,7-tetrahydro-cycloheptimidazole]
21 | 0.501 | CCCCc1nc2c(n1Cc1ccc(-n3cccc3-c3nn[nH]n3)cc1)/C(=C/C(=O)O)CCCC2 [Compound 26, 2-Butyl-8-carboxymethylidene-1-[4-(1H-pyrrole-2-(1H-tetrazole-5-yl)phenyl)methyl]-4,5,6,7-tetrahydro-cycloheptimidazole]

test system: pressor responses to AII; assay: Inhibition of AII induced blood pressure increase in rats; format: in vivo; details: Rattus norvegicus, po, test compound 0.3 mg/kg orally, AII 30 ng/kg i.v., pressor responses measured at set times
Method: [Inhibition of All induced Blood Pressure Increase]
Carotid artery and left femoral vein in rats were cannulated. Next day, the carotid catheter was connected to a pressure transducer for monitoring arterial blood pressure. After the measurement of AII (30 ng/kg, i.v.) pressor responses, test compounds (0.3 mg/kg) were administered orally.
Thereafter, the pressor responses to AII at set times were measured and the inhibition percent was calculated according to the comparison of the pressor responses.

Row | Compound | inhibition in vivo at 0.3 mg/kg [%]
22 | CCCc1nc2c(n1Cc1ccc(-c3ccccc3-c3nnn[nH]3)cc1)/C(=C/C(=O)OCC)CCCC2 [Compound 4, 2-Propyl-8-ethoxycarbonylmethylidene-1-[(2'-(1H-tetrazole-5-yl)biphenyl-4-yl)methyl]-4,5,6,7-tetrahydro-cycloheptimidazole] | 50 to 70
23 | CCOC(=O)/C=C1\CC(C(C)C)CCc2nc(CC)n(Cc3ccc(-c4ccccc4-c4nnn[nH]4)cc3)c21 (stereo not shown) [Compound 7, 2-Ethyl-6-isopropyl-8-ethoxycarbonylmethylidene-1-[(2'-(1H-tetrazole-5yl)biphenyl-4-yl)methyl]-4,5,6,7-tetrahydro-cycloheptimidazole] | ≥ 70
24 | CCc1nc2c(n1Cc1ccc(-c3ccccc3-c3nnn[nH]3)cc1)/C(=C/C(=O)O)CCCC2 [Compound 16, 2-Ethyl-8-carboxymethylidene-1-[(2'-(1H-tetrazole-5-yl)biphenyl-4-yl)methyl]-4,5,6,7-tetrahydro-cycloheptimidazole] | ≥ 70
25 | CCCc1nc2c(n1Cc1ccc(-c3ccccc3-c3nnn[nH]3)cc1)/C(=C/C(=O)O)CCCC2 [Compound 17, 2-Propyl-8-carboxymethylidene-1-[(2'-(1H-tetrazole-5-yl)biphenyl-4-yl)methyl]-4,5,6,7-tetrahydro-cycloheptimidazole] | 50 to 70
26 | CCCc1nc2c(n1Cc1ccc(-c3ccccc3-c3nnn[nH]3)cc1)/C(=C/C(=O)OC(C)OC(=O)OC1CCCCC1)CCCC2 (stereo not shown) [Compound 28] | ≥ 70
27 | CCc1nc2c(n1Cc1ccc(-c3ccccc3-c3nnn[nH]3)cc1)/C(=C/C(=O)OC(C)OC(=O)OC(C)C)CC(C(C)C)CC2 (stereo not shown) [Compound 31, 2-Ethyl-6-isopropyl-8-(1-isopropoxycarbonyloxy)ethoxycarbonylmethylidene-1-[(2'-(1H-tetrazole-5-yl)biphenyl-4-yl)methyl]-4,5,6,7-tetrahydro cycloheptimidazole] | ≥ 70
28 | CCCc1nc2c(n1Cc1ccc(-c3ccccc3-c3nnn[nH]3)cc1)/C(=C/C(=O)OC(C)OC(=O)OC(C)C)CC(C(C)C)CC2 (stereo not shown) [Compound 33, 2-Propyl-6-isopropyl-8-(1-isopropoxycarbonyloxy)ethoxycarbonylmethylidene-1-[(2'-(1H-tetrazole-5-yl)biphenyl-4-yl)methyl]-4,5,6,7-tetrahydro-cycloheptimidazole] | ≥ 70
